Molecules are shown by their SMILES.

In this assay the test system is kidney uptake of [177Lu-DOTA0,Tyr3]octreotate. The assay can be described thus: Kidney uptake of [177Lu-DOTA0,Tyr3]octreotate measured by NanoSPECT in rats. The format is in vivo, Male Lewis rats. The procedure: For reduction of kidney rats were injected with 20 mg Gelofusine, 100 mg lysine or the combination. Kidney uptake was measured by SPECT scans with a […] multi-pinhole camera (NanoSPECT, Bioscan) at 24 h, 5 and 7 days pi. Kidney uptake was quantified by VOI analysis.

As to `NCCCC[C@H](N)C(=O)O` [lysine], under “24 h pi, 555 MBq, 20 mg Gelofusine, 100 mg lysine or the combination, SPECT VOI analysis”, the “inhibition of kidney uptake of [177Lu-DOTA0,Tyr3]octreotate” value is 37%±6%. The “reduction of kidney uptake with an overdose of lysine alone” value (rats, overdose of lysine alone) is reported as “did not improve the reduction of the kidney uptake”.

These data come from patent US8293873B2, “Combination of amino acid solution and a gelatin derivative for inhibiting renal up-take” (BioSynthema Inc., priority 2006, dated 2012).
